Test results as given in publication PMC9323132, “Characterization of Two Dehydrogenases from Gluconobacter oxydans Involved in the Transformation of Patulin to Ascladiol” (Toxins, 2022).

Tests used:
GOX1899 = molecular target: T1, GOX1899 (Gluconobacter oxydans, UniProt Q5FPQ9); experiment: NADPH oxidation at […] nm, Michaelis-Menten fit; format: biochemical; details: read-out: apparent KM; 250 µM NADPH; pH 6.0 (0.1 M Tris, 0.05 M MES, 0.05 M acetic acid); 25 °C
T1 construct: full-length, N-terminal His-tag (pET28a), E. coli LOBSTR-BL21 (DE3), Ni-NTA; about 29 kDa; native N-terminus by primer MTTDNI
T1 sequence (Q5FPQ9 entry or part of it): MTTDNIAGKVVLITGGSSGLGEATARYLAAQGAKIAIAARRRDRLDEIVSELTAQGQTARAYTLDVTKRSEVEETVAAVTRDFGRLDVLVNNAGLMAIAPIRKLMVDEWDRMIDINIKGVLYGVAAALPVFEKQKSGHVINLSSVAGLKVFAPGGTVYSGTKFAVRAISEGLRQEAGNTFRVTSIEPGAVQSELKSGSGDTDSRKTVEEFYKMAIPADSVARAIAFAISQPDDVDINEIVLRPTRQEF

GOX1462 = molecular target: T2, GOX1462 (Gluconobacter oxydans, UniProt Q5FQY5); experiment: HPLC of E-ascladiol formation by recombinant E. coli cells; format: cell-based, Escherichia coli; details: 10 µg/mL patulin; 500 µM NADPH; 20 mM MES pH 5; 30 °C; 24 h
T2 construct: full-length in pET28a, whole E. coli LOBSTR-BL21 (DE3) cells; not purified (aggregated); native N-terminus by primer MQYRQLG
T2 sequence (Q5FQY5 entry or part of it): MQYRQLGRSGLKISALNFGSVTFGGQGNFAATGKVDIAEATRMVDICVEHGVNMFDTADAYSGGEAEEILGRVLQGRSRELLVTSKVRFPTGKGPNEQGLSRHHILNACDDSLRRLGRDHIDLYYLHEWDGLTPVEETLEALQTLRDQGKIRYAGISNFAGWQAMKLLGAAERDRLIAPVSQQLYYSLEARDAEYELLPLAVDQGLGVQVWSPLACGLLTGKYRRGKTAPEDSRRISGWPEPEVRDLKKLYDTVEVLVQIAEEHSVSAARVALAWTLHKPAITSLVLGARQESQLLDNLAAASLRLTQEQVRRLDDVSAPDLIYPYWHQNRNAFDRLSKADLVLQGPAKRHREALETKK

GOX0525 = molecular target: T3, GOX0525 (Gluconobacter oxydans, UniProt Q5FTJ3); experiment: NADPH oxidation at […] nm, Michaelis-Menten fit; format: biochemical; details: read-out: apparent KM; 250 µM NADPH; pH 6.0 (0.1 M Tris, 0.05 M MES, 0.05 M acetic acid); 25 °C
T3 construct: full-length, N-terminal His-tag (pET28a), E. coli LOBSTR-BL21 (DE3), Ni-NTA; about 29 kDa; native N-terminus by primer MTHRVAL
T3 sequence (Q5FTJ3 entry or part of it): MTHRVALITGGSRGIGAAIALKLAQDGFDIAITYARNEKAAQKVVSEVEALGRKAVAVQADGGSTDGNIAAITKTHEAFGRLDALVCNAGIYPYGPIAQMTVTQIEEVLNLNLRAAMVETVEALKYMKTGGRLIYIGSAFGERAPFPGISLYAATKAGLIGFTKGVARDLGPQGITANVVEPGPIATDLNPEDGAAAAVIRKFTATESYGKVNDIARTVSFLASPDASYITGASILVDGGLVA

GOX0716 = molecular target: T4, GOX0716 (Gluconobacter oxydans, UniProt Q5FT03); experiment: HPLC of E-ascladiol formation by recombinant E. coli cells; format: cell-based, recombinant Escherichia coli; details: 10 µg/mL patulin; 500 µM NADPH; 20 mM MES pH 5; 30 °C; 24 h
T4 construct: full-length in pET28a, whole E. coli LOBSTR-BL21 (DE3) cells; not purified; native N-terminus by primer MADHSI
T4 sequence (Q5FT03 entry or part of it): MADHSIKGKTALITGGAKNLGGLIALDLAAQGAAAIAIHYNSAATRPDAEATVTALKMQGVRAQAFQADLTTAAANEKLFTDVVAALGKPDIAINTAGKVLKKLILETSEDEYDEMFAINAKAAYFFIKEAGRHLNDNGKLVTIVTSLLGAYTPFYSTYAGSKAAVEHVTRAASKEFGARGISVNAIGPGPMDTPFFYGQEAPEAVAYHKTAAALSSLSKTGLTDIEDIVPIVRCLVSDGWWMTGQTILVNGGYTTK

In the case of `O=C1C=C2C(=CCOC2O)O1` (stereo not shown) [patulin, 4-hydroxy-4H-furo [3,2-c]pyran-2(6H)-one], the Km (GOX1899) is reported as 7.26 ± 0.54 mM, the “HPLC of E-ascladiol formation by recombinant E. coli cells” value (GOX1462) is reported as “capable of producing E-ascladiol were those containing GOX0525, GOX1899, GOX1462 and GOX0716” and the Km (GOX0525) is reported as 8.64 ± 0.89 mM. The “HPLC of E-ascladiol formation by recombinant E. coli cells” value (GOX0716) was “capable of producing E-ascladiol were those containing GOX0525, GOX1899, GOX1462 and GOX0716”.
